Publication PMC8815882, “Screening the pandemic response box identified benzimidazole carbamates, Olorofim and ravuconazole as promising drug candidates for the treatment of eumycetoma” (PLoS Neglected Tropical Diseases, 2022)
In brackets after ≈: the same amount, converted by molar mass. Where two headings read alike, the source gives them in different places. Each block holds one compound with its values, some of them ahead of it.

Columns and labels:
[1] = system: M. mycetomatis genome strain MM55; test: CLSI M38-A2 based in vitro susceptibility screening (XTT or resazurin), growth at fixed concentration; format: cell-based, Madurella mycetomatis; conditions: Madurella mycetomatis
M. mycetomatis MM55 = test: IC50 determination, 2-fold dilution series 16 to 0.03125 μM; format: cell-based, Madurella mycetomatis
[2] = system: ten different M. mycetomatis isolates; test: MIC / MIC50 determination (XTT) in ten M. mycetomatis isolates; format: cell-based, Madurella mycetomatis; conditions: for MIC50 / MIC: Madurella mycetomatis
[3] = system: M. mycetomatis isolate MM55; test: M. mycetomatis grain infection model in G. mellonella larvae, survival; format: in vivo, Galleria mellonella; parameters: In vivo efficacy, Larvae survival %: concentration or dose not given beside the values; conditions: for Effect on larvae survival Day 4 (words): day four
[4] = mean, read-out: Percentage survival at 25um, 25 uM mean
[5] = replicate A, read-out: Percentage survival at 25um, 25 um A
[6] = replicate B, read-out: Percentage survival at 25um, 25 uM B
[7] = replicate C, read-out: Percentage survival at 25um, 25 uM C
[8] = 100 uM, mean, read-out: Percentage survival at 100um, 100 uM mean
[9] = 100 uM, replicate (first column), read-out: Percentage survival at 100um, 100 uM A
[10] = 100 uM, replicate (second column), read-out: Percentage survival at 100um, 100 uM A
[11] = 100 uM, replicate (third column), read-out: Percentage survival at 100um, 100 uM A
[12] = Madurella mycetomatis, MM55, Table 2, M. mycetomatis MM55, read-out: IC50
[13] = Madurella mycetomatis, MM55, read-out: IC90 mean
[14] = Madurella mycetomatis, MM55, replicate 1, read-out: IC50 1
[15] = Madurella mycetomatis, MM55, replicate 1, read-out: IC90 1
[16] = Madurella mycetomatis, MM55, replicate 2, read-out: IC50 2
[17] = Madurella mycetomatis, MM55, replicate 2, read-out: IC90 2
[18] = Madurella mycetomatis, MM55, replicate 3, read-out: IC50 3
[19] = Madurella mycetomatis, MM55, replicate 3, read-out: IC90 3
[20] = median MIC over ten M. mycetomatis isolates, no asterisk, read-out: MIC50
[21] = over the isolates tested, read-out: MIC50 mean
[22] = isolate CBS247.48, read-out: MIC CBS247.48
[23] = isolate MM14, read-out: MIC MM14
[24] = isolate MM45, read-out: MIC MM45
[25] = isolate MM55, read-out: MIC MM55
[26] = isolate ParijsAl1, read-out: MIC ParijsAl1
[27] = isolate Peru72012, read-out: MIC Peru72012
[28] = 20 μM per larvae, vs infected control
[29] = G. mellonella larvae infected with M. mycetomatis

- IC50 (M. mycetomatis MM55; [12]): 720 nM
- IC90 (M. mycetomatis MM55; [13]): 1290 nM
- IC50 (M. mycetomatis MM55; [14]): 580 nM
- IC90 (M. mycetomatis MM55; [15]): 1300 nM
- IC50 (M. mycetomatis MM55; [16]): 780 nM
- IC90 (M. mycetomatis MM55; [17]): 1210 nM
- IC50 (M. mycetomatis MM55; [18]): 800 nM
- IC90 (M. mycetomatis MM55; [19]): 1350 nM
- MIC50 [2, 20]: 0.5 µM (≈ 0.165 µg/mL)
- MIC50 [2, 21]: 0.5 µM (≈ 0.165 µg/mL)
- MIC [2, 22]: 2 µM (≈ 0.658 µg/mL)
- MIC [2, 23]: 0.125 µM (≈ 0.0412 µg/mL)
- MIC [2, 24]: 4 µM (≈ 1.32 µg/mL)
- MIC [2, 25]: 0.5 µM (≈ 0.165 µg/mL)
- MIC ([2]; isolate P1, read-out: MIC P1): 1 µM (≈ 0.329 µg/mL)
- MIC [2, 26]: 0.125 µM (≈ 0.0412 µg/mL)
- MIC [2, 27]: 0.5 µM (≈ 0.165 µg/mL)
- MIC ([2]; isolate So1, read-out: MIC So1): 0.125 µM (≈ 0.0412 µg/mL)
- MIC ([2]; isolate i1, read-out: MIC i1): 0.0625 µM (≈ 0.0206 µg/mL)
- MIC ([2]; isolate i11, read-out: MIC i11): 1 µM (≈ 0.329 µg/mL)
Compound: Clc1cc(Cl)c2c(c1)CCc1ccccc1C2n1ccnc1 (stereo not shown) [MMV1634492, Eberconazole, reference compound]
- activity at 25 µM [1, 4]: -1.12%
- activity at 25 µM [1, 5]: -3.02%
- activity at 25 µM [1, 6]: -4.98%
- activity at 25 µM [1, 7]: 4.64%
- activity at 100 µM [1, 8]: 3.3%
- activity at 100 µM [1, 9]: -3.84%
- activity at 100 µM [1, 10]: 6.56%
- activity at 100 µM [1, 11]: 7.19%
- Drug static or cidal (M. mycetomatis MM55): Cidal
- Effect on larvae survival Day 4 (words) [3, 28]: prolonged larvae survival
- In vivo efficacy, Enhanced survival compared to control? ([3]; in vivo): no
- In vivo efficacy, Larvae survival % ([3]; in vivo): 13.3%

- IC50 (M. mycetomatis MM55; [12]): < 20 nM
- IC50 (M. mycetomatis MM55; Madurella mycetomatis, MM55, mean of replicates, read-out: IC50 mean): < 98 nM
- IC90 (M. mycetomatis MM55; Madurella mycetomatis, MM55, mean of replicates, read-out: IC90 mean): < 98 nM
- IC50 (M. mycetomatis MM55; Madurella mycetomatis, MM55, replicate 1, read-out: IC50 1 um): < 98 nM
- IC90 (M. mycetomatis MM55; Madurella mycetomatis, MM55, replicate 1, read-out: IC90 1 um): < 98 nM
- IC50 (M. mycetomatis MM55; Madurella mycetomatis, MM55, replicate 2, read-out: IC50 2 um): < 98 nM
- IC90 (M. mycetomatis MM55; Madurella mycetomatis, MM55, replicate 2, read-out: IC90 2 um): < 98 nM
- IC50 (M. mycetomatis MM55; Madurella mycetomatis, MM55, replicate 3, read-out: IC50 3 um): < 98 nM
- IC90 (M. mycetomatis MM55; Madurella mycetomatis, MM55, replicate 3, read-out: IC90 3 um): < 98 nM
- IC50 (M. mycetomatis MM55; Table 2, M. mycetomatis MM55, read-out: IC50): < 30 nM
- MIC50 [2, 20]: < 0.03 µM
- MIC50 ([2]; over the tested M. mycetomatis isolates, read-out: MIC50 mean): < 0.0312 µM
- MIC [2, 22]: < 0.0312 µM
- MIC [2, 23]: < 0.0312 µM
- MIC [2, 24]: < 0.0312 µM
- MIC [2, 25]: < 0.0312 µM
- MIC ([2]; isolate P1, read-out: MIC P1): < 0.0312 µM
- MIC [2, 26]: < 0.0312 µM
- MIC [2, 27]: < 0.0312 µM
- MIC ([2]; isolate So1, read-out: MIC So1): < 0.0312 µM
- MIC ([2]; isolate i1, read-out: MIC i1): < 0.0312 µM
- MIC ([2]; isolate i11, read-out: MIC i11): < 0.0312 µM
- MIC50 (μM) ([2]; median MIC over ten M. mycetomatis isolates, no asterisk): <0.03 (≦0.03) μM
Compound: N#C/C(=C1/SC[C@@H](c2ccc(Cl)cc2Cl)S1)n1ccnc1 [MMV1782224, Luliconazole, reference compound]
- activity at 25 µM ([1]; mean of three, M. mycetomatis MM55, read-out: Percentage survival at 25um, 25 uM mean): 1.75%
- activity at 25 µM ([1]; replicate A, M. mycetomatis MM55, read-out: Percentage survival at 25um, 25 um A): -0.617%
- activity at 25 µM ([1]; replicate B, M. mycetomatis MM55, read-out: Percentage survival at 25um, 25 uM B): 1.37%
- activity at 25 µM ([1]; replicate C, M. mycetomatis MM55, read-out: Percentage survival at 25um, 25 uM C): 4.51%
- activity at 100 µM ([1]; 100 uM, mean of three, M. mycetomatis MM55, read-out: Percentage survival at 100um, 100 uM mean): 6.85%
- activity at 100 µM ([1]; 100 uM, replicate 1, M. mycetomatis MM55, read-out: Percentage survival at 100um, 100 uM A (first replicate column)): -0.151%
- Percent fungal survival at 100 µM ([1]; 100 uM, replicate 2, M. mycetomatis MM55, read-out: Percentage survival at 100um, 100 uM A (second replicate column)): 8.79%
- activity at 100 µM ([1]; 100 uM, replicate 3, M. mycetomatis MM55, read-out: Percentage survival at 100um, 100 uM A (third replicate column)): 11.9%
- Drug static or cidal (M. mycetomatis MM55; M. mycetomatis): Cidal
- Effect on larvae survival Day 4 (words) [3, 28]: prolonged larvae survival
- In vivo efficacy, Enhanced survival compared to control? [3, 29]: no
- In vivo efficacy, Larvae survival % [3, 29]: 11.1%

- IC50 (M. mycetomatis MM55; [12]): 3220 nM
- IC50 (M. mycetomatis MM55; Madurella mycetomatis, MM55, mean, read-out: IC50 mean): 3220 nM
- IC90 (M. mycetomatis MM55; [13]): > 25000 nM
- IC50 (M. mycetomatis MM55; [14]): 2880 nM
- IC90 (M. mycetomatis MM55; [15]): > 25000 nM
- IC50 (M. mycetomatis MM55; [16]): 3520 nM
- IC90 (M. mycetomatis MM55; [17]): 6200 nM
- IC50 (M. mycetomatis MM55; [18]): 3250 nM
- IC90 (M. mycetomatis MM55; [19]): > 25000 nM
- MIC50 ([2]; Table 3 and Fig 5, benzimidazole carbamates, M. mycetomatis, read-out: MIC50): 4 µM (≈ 0.821 µg/mL)
- MIC50 [2, 20]: 4 µM (≈ 0.821 µg/mL)
- MIC50 [2, 21]: 4 µM (≈ 0.821 µg/mL)
- MIC [2, 22]: 4 µM (≈ 0.821 µg/mL)
- MIC [2, 23]: 4 µM (≈ 0.821 µg/mL)
- MIC [2, 24]: 4 µM (≈ 0.821 µg/mL)
- MIC [2, 25]: 4 µM (≈ 0.821 µg/mL)
- MIC ([2]; isolate P1, read-out: MIC P1): 4 µM (≈ 0.821 µg/mL)
- MIC [2, 26]: 4 µM (≈ 0.821 µg/mL)
- MIC [2, 27]: 4 µM (≈ 0.821 µg/mL)
- MIC ([2]; isolate So1, read-out: MIC So1): 4 µM (≈ 0.821 µg/mL)
- MIC ([2]; isolate i1, read-out: MIC i1): 4 µM (≈ 0.821 µg/mL)
- MIC ([2]; isolate i11, read-out: MIC i11): 4 µM (≈ 0.821 µg/mL)
Compound: COC(=O)Nc1nc2c(C)cccc2[nH]1 [MMV1782387]
- activity at 25 µM [1, 4]: 4.41%
- activity at 25 µM [1, 5]: 0.37%
- activity at 25 µM [1, 6]: 7.58%
- activity at 25 µM [1, 7]: 5.29%
- activity at 100 µM [1, 8]: 15.6%
- activity at 100 µM [1, 9]: 4.59%
- activity at 100 µM [1, 10]: 6.95%
- activity at 100 µM [1, 11]: 35.2%
- Drug static or cidal (M. mycetomatis MM55): Static
- Larvae survival rate on day ten ([3]; 20 μM per larvae at 4, 28, 52 h after infection, day ten): 28.9%
- Effect on larvae survival Day 4 (words) [3, 28]: Increase survival
- Effect on larvae survival Day 10 (words) ([3]; 20 μM per larvae, vs infected control, day ten): able to increase larvae survival
- In vivo efficacy, Enhanced survival compared to control? ([3]; in vivo): yes **
- In vivo efficacy, Larvae survival % ([3]; in vivo): 28.9%
